Measurements taken from PubChem BioAssay AID2060882 (Molecular Pharmacology Branch, DTP, NCI, 2025).

Test system: 898857-211-R-J1-PDC complex spheroids, growth % test/control
Experiment: Anticancer human tumor 898857-211-R-J1-PDC patient-derived melanoma cell line growth inhibition [RAS]
Conditions: for viability, T/C: stronger effect = lower value
Description: RAS pathway inhibitors in Combinations in Complex Spheroids
A high-throughput screen of multi-cell type tumor spheroids was designed to identify active combinations of RAS pathway inhibitors and targeted small molecules. Complex spheroids include a stromal component modeled by human endothelial cells (HUVEC) and fibroblasts modeled by human mesenchymal stem cells (MSCs). The concentration ranges selected for each drug and investigational agent were based upon clinically achievable concentrations if the clinical Cmax of the agent was known.
Compounds. The drugs and investigational agents: abemaciclib (NSC768073), cobimetinib (NSC768068), divarasib (GDC6063, NSC841802), docetaxel (NSC628503), GDC-1971 (RLY-1971, NSC841576), gemcitabine (NSC613327), inavolisib (NSC800729), ipatasertib (NSC767898), KB-0742 (NSC834161), MRTX-1133 (NSC836407), osimertinib (NSC779217), RMC-4630 (NSC839698), RMC-6236 (NSC851965), RMC-6291 (NSC852671), Ro-3306 (NSC812927), sapanisertib (NSC764658), SN-38 (NSC673596), staurosporine (NSC755774), SY5609 (NSC837396), and tovorafenib (DAY101, NSC766906), were obtained from the National Cancer Institute (NCI) Developmental Therapeutics Program Chemical Repository. The FDA-approved anticancer drug set is available from the NCI Developmental Therapeutics Program. […] The stock solutions were prepared in dimethyl sulfoxide (DMSO, Sigma-Aldrich, St. Louis, MO, cat. D2650) at 800-fold the tested concentration and stored at -70 degrees C prior to their use. All drugs and investigational agents were tested over a range starting from a high concentration at or near the clinical Cmax and decreasing in half-log increments. If the clinical Cmax for an agent had not been determined, the highest concentration tested was 10 microM.
Cell Culture. All cells were maintained in an incubator at 37 degrees C and 5% CO2 with 95% humidity. The PDC lines were cultured according to standard operating procedures established by the NCI PDMR. All PDCs were thawed and cultured in Matrigel-coated flasks prepared with a working solution of 1X Ham's F-12 nutrient mix, without supplementation (Invitrogen, Waltham, MA, cat. 11765054), 100 U/mL penicillin-streptomycin (Invitrogen, cat. 15140122), and 2.5% Matrigel (Corning Inc., Corning, NY, cat. 354248) for the first three passages. The 362531-283-R-J2-PDC and 782815-120-R-J1-PDC lines were cultured in 6C/Colon 1B media, which includes advanced DMEM/F-12 (Thermo Fisher Scientific, cat. 12634028), 10 mM HEPES (Thermo Fisher Scientific, cat. 15630080), 1X GlutaMAX supplement (Thermo Fisher Scientific, cat. 35050061), 0.1 mg/mL primocin (InvivoGen, San Diego, CA, cat. ant-pm-2), 10% defined fetal bovine serum, heat inactivated (HyClone Laboratories Inc., Logan, UT, cat. SH30070.03HI), 50% L-WRN conditioned media (ATCC, cat. CRL-3276), 1.25 mM N-Acetyl-L-cysteine (Sigma-Aldrich, cat. A9165), 10 mM nicotinamide (Sigma-Aldrich, cat. N0636), 1X B-27 supplement (Thermo Fisher Scientific, cat. 17504044), 1X N-2 supplement (Thermo Fisher Scientific, cat. 17502048), 50 ng/mL human EGF (Thermo Fisher Scientific, cat. PHG0311), and 10 microM Y-27632 dihydrochloride (Tocris Bioscience, cat. 1254). The K12877-001-R-J1-PDC line was cultured in 6I media, which includes all 6C/Colon 1B media plus 10 ng/mL human FGF-10 (PeproTech, cat. 100-26), 1 ng/mL human FGF-2 (PeproTech, cat. 100-18B), 1 µM prostaglandin E2 (Tocris Bioscience, cat. 2296), […] hydrocortisone (Sigma-Aldrich, cat. H4001), and […] bovine insulin (Sigma-Aldrich, cat. I6634). The K86415-001-R-J1-PDC line was cultured in 6D media, which includes all 6C/Colon 1B media components minus the L-WRN conditioned media. The 485176-168-R4-J1-PDC was cultured in PANC media, which includes all 6C/Colon 1B media plus 100 ng/mL human FGF-10 (PeproTech, cat. 100-26), 500 nM SB-431542 (Selleckchem, cat. S1067), and 10 nM gastrin (Tocris Bioscience, cat. 3006). […]

[1] = curve of first compound, second compound 0.0316 µM
[2] = curve of first compound, second compound 0.1 µM
[3] = curve of first compound, second compound 0.316 µM
[4] = curve of first compound, second compound 1 µM
[5] = curve of first compound, second compound 3.16 µM
[6] = curve of first compound, second compound 10 µM
[7] = second compound 0.0316 µM, first compound 0.00316 µM
[8] = second compound 0.0316 µM, first compound 0.01 µM
[9] = second compound 0.0316 µM, first compound 0.0316 µM
[10] = second compound 0.0316 µM, first compound 0.1 µM
[11] = second compound 0.0316 µM, first compound 0.316 µM
[12] = second compound 0.0316 µM, first compound 1 µM
[13] = second compound 0.1 µM, first compound 0.00316 µM
[14] = second compound 0.1 µM, first compound 0.01 µM
[15] = second compound 0.1 µM, first compound 0.0316 µM
[16] = second compound 0.1 µM, first compound 0.1 µM
[17] = second compound 0.1 µM, first compound 0.316 µM
[18] = second compound 0.1 µM, first compound 1 µM
[19] = second compound 0.316 µM, first compound 0.00316 µM
[20] = second compound 0.316 µM, first compound 0.01 µM
[21] = second compound 0.316 µM, first compound 0.0316 µM
[22] = second compound 0.316 µM, first compound 0.1 µM
[23] = second compound 0.316 µM, first compound 0.316 µM
[24] = second compound 0.316 µM, first compound 1 µM
[25] = second compound 1 µM, first compound 0.00316 µM
[26] = second compound 1 µM, first compound 0.01 µM
[27] = second compound 1 µM, first compound 0.0316 µM
[28] = second compound 1 µM, first compound 0.1 µM
[29] = second compound 1 µM, first compound 0.316 µM
[30] = second compound 1 µM, first compound 1 µM
[31] = second compound 3.16 µM, first compound 0.00316 µM
[32] = second compound 3.16 µM, first compound 0.01 µM
[33] = second compound 3.16 µM, first compound 0.0316 µM
[34] = second compound 3.16 µM, first compound 0.1 µM
[35] = second compound 3.16 µM, first compound 0.316 µM
[36] = second compound 3.16 µM, first compound 1 µM
[37] = second compound 10 µM, first compound 0.00316 µM
[38] = second compound 10 µM, first compound 0.01 µM
[39] = second compound 10 µM, first compound 0.0316 µM
[40] = second compound 10 µM, first compound 0.1 µM
[41] = second compound 10 µM, first compound 0.316 µM
[42] = second compound 10 µM, first compound 1 µM
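Also: spheroids exposed to compound for seven days before readout.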
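For viability, T/C in this document: 100% = DMSO vehicle control wells.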

In the case of `CC(C)NCC(C(=O)N1CCN(c2ncnc3c2C(C)CC3O)CC1)c1ccc(Cl)cc1` (stereo not drawn), the viability, T/C (compound 0.1 µM) is reported as 101% [middle of 4 runs], the viability, T/C (compound 0.316 µM) is reported as 104% [middle of 4 runs] and the viability, T/C (compound 1 µM) is reported as 93.2% [middle of 4 runs]. For the same compound, the viability, T/C (compound 3.16 µM) was 78.1% [middle of 4 runs], the viability, T/C (compound 10 µM) was 58.9% [middle of 4 runs] and the IC50 (curve of compound) was > 10 µM.
With `C[C@@H](NC(=O)c1ncnc(N)c1Cl)c1ncc(C(=O)Nc2cc(C(F)(F)F)c(Cl)cn2)s1` the viability, T/C (compound 0.1 µM) was 122% [middle of 4 runs], the viability, T/C (compound 1 µM) was 81.2% [middle of 4 runs] and the viability, T/C (compound 10 µM) was 36.8% [middle of 4 runs].
With `C=CC(=O)Nc1cc(Nc2nccc(-c3cn(C)c4ccccc34)n2)c(OC)cc1N(C)CCN(C)C` + C#Cc1c(F)ccc2cc(O)cc(-c3ncc4c(N5CC6CCC(C5)N6)nc(OCC56CCCN5CC(F)C6)nc4c3F)c12 the IC50 [1] was > 1 µM, the IC50 [2] was > 1 µM and the IC50 [3] was > 1 µM. The IC50 [4] was > 1 µM, the IC50 [5] was 0.778 µM and the IC50 [6] was 0.024 µM. For the same compound, the viability, T/C [7] was 103%, the viability, T/C [8] was 92.3% and the viability, T/C [9] was 103%. For the same compound, the viability, T/C [10] was 100%, the viability, T/C [11] was 85.4% and the viability, T/C [12] was 65.7%. The viability, T/C [13] was 108%, the viability, T/C [14] was 105% and the viability, T/C [15] was 107%. For the same compound, the viability, T/C [16] was 98.6%, the viability, T/C [17] was 94.7% and the viability, T/C [18] was 62.1%. It also gave a viability, T/C [19] of 113%, a viability, T/C [20] of 101% and a viability, T/C [21] of 111%. It also gave a viability, T/C [22] of 96.2%, a viability, T/C [23] of 85.8% and a viability, T/C [24] of 49.9%. For the same compound, the viability, T/C [25] was 109%, the viability, T/C [26] was 95.8% and the viability, T/C [27] was 109%. The viability, T/C [28] was 97.6%, the viability, T/C [29] was 93.6% and the viability, T/C [30] was 54.5%. It also gave a viability, T/C [31] of 109%, a viability, T/C [32] of 105% and a viability, T/C [33] of 102%. For the same compound, the viability, T/C [34] was 105%, the viability, T/C [35] was 87.6% and the viability, T/C [36] was 39%. For the same compound, the viability, T/C [37] was 65.7%, the viability, T/C [38] was 48.1% and the viability, T/C [39] was 45.1%. For the same compound, the viability, T/C [40] was 45.5%, the viability, T/C [41] was 19.9% and the viability, T/C [42] was 0.87%.
With `O=C(c1ccc(F)c(F)c1Nc1ccc(I)cc1F)N1CC(O)([C@@H]2CCCCN2)C1` + C#Cc1c(F)ccc2cc(O)cc(-c3ncc4c(N5CC6CCC(C5)N6)nc(OCC56CCCN5CC(F)C6)nc4c3F)c12 the IC50 [1] was 0.00356 µM, the IC50 [2] was < 0.00316 µM and the IC50 [3] was < 0.00316 µM. The IC50 [4] was 0.00369 µM, the IC50 [5] was 0.00518 µM and the IC50 [6] was < 0.00316 µM. The viability, T/C [7] was 52.6%, the viability, T/C [8] was 35.3% and the viability, T/C [9] was 26.1%. The viability, T/C [10] was 26.5%, the viability, T/C [11] was 17.6% and the viability, T/C [12] was 14.2%. It also gave a viability, T/C [13] of 44%, a viability, T/C [14] of 36.1% and a viability, T/C [15] of 27.1%. The viability, T/C [16] was 20.7%, the viability, T/C [17] was 18.8% and the viability, T/C [18] was 15.3%. The viability, T/C [19] was 50%, the viability, T/C [20] was 37.8% and the viability, T/C [21] was 29.6%. The viability, T/C [22] was 24.8%, the viability, T/C [23] was 16.7% and the viability, T/C [24] was 14.5%. It also gave a viability, T/C [25] of 53.5%, a viability, T/C [26] of 30% and a viability, T/C [27] of 24.5%. For the same compound, the viability, T/C [28] was 20.6%, the viability, T/C [29] was 17.6% and the viability, T/C [30] was 15.3%. The viability, T/C [31] was 59.7%, the viability, T/C [32] was 36.2% and the viability, T/C [33] was 26.7%. The viability, T/C [34] was 21.4%, the viability, T/C [35] was 19.3% and the viability, T/C [36] was 12.5%. It also gave a viability, T/C [37] of 17.5%, a viability, T/C [38] of 14.3% and a viability, T/C [39] of 12.5%. The viability, T/C [40] was 9.58%, the viability, T/C [41] was 9.91% and the viability, T/C [42] was 5.99%.
